Measured values: the supplement of paper PMC10878532, “Sperm Toolbox—A selection of small molecules to study human spermatozoa” (PLOS ONE, 2024)
Counter-ions that a name gives are not always drawn.

Columns and labels:
[1] = system: HepG2; assay: HepG2 toxicity (resazurin), effect normalised to DMSO (DMSO = 0); higher = more features changed / larger toxic effect; conditions: incubation time: 70h incubation
[2] = system: HeLa; assay: HeLa toxicity: nuclei-count effect normalised to DMSO (DMSO = 0); higher = more features changed / larger toxic effect; conditions: incubation time: 24h incubation
[3] = system: HeLa; assay: Cell Painting percent induction (share of features beyond 2 z-scores vs DMSO); higher = more features changed / larger toxic effect; extreme values may be limits of the assay; conditions: incubation time: 24h incubation
[4] = system: human spermatozoa; assay: total motile sperm, percent change vs DMSO (non-capacitating); higher = more of the measured sperm population than DMSO, for viability, fewer PI-positive (dead) cells than DMSO
[5] = system: human spermatozoa; assay: viability fold change, 1 - (PI-positive fraction / DMSO median); higher = more of the measured sperm population than DMSO, for viability, fewer PI-positive (dead) cells than DMSO; conditions: incubation time: 3h, non-capacitating
[6] = system: human spermatozoa; assay: progressively motile sperm, percent change vs DMSO (capacitating); higher = more of the measured sperm population than DMSO, for viability, fewer PI-positive (dead) cells than DMSO; conditions: incubation time: 30min incubation
[7] = system: human spermatozoa; assay: hyperactivated motile sperm, percent change vs DMSO (capacitating); higher = more of the measured sperm population than DMSO, for viability, fewer PI-positive (dead) cells than DMSO; conditions: incubation time: 30min incubation
[8] = system: human spermatozoa; assay: change in acrosome-reacted (PNA+) sperm vs DMSO, no agonist (capacitating); higher = more of the measured sperm population than DMSO, for viability, fewer PI-positive (dead) cells than DMSO; conditions: incubation time: 3h
[9] = system: human spermatozoa; assay: acrosome-reacted (PNA+) sperm after agonist cocktail, percent change vs DMSO (capacitating); higher = more of the measured sperm population than DMSO, for viability, fewer PI-positive (dead) cells than DMSO; conditions: incubation time: 3h, capacitating + agonist cocktail 1h
[10] = system: human spermatozoa; assay: progressively motile sperm, percent change vs DMSO (non-capacitating); higher = more of the measured sperm population than DMSO, for viability, fewer PI-positive (dead) cells than DMSO; extreme values may be limits of the assay
[11] = incubation time: 10min incubation, 9.99 µM
[12] = incubation time: 10min incubation, 29.9 µM
[13] = incubation time: 3h incubation, 9.99 µM
[14] = incubation time: 3h incubation, 29.9 µM
[15] = incubation time: 6h incubation, 9.99 µM
[16] = incubation time: 6h incubation, 29.9 µM
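For progressively motile sperm, percent change vs DMSO (non-capacitating) in this document: pooled live human sperm from at least 3 donors, tracked by automated microscopy in 0.5 s time-lapse movies, compounds at 10 and 30 µM, versus median of 16 DMSO wells per plate.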
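For total motile sperm, percent change vs DMSO (non-capacitating) in this document: sperm pooled from at least 3 donors, tracked in 0.5 s time-lapse movies by automated microscopy after 10 min, 3 h or 6 h with compound at 10 or 30 µM.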

SMILES	HepG2 toxicity ([1]; 10 µM) [%]	HepG2 toxicity ([1]; 30 µM) [%]	HeLa toxicity: nuclei-count effect normalised ([2]; 9.99 µM) [%]	HeLa toxicity: nuclei-count effect normalised ([2]; 29.9 µM) [%]	Cell Painting percent induction ([3]; 9.99 µM) [%]	Cell Painting percent induction ([3]; 29.9 µM) [%]	total motile sperm [4, 11] [%]	total motile sperm [4, 12] [%]	total motile sperm [4, 13] [%]	total motile sperm [4, 14] [%]	total motile sperm [4, 15] [%]	total motile sperm [4, 16] [%]	viability fold change ([5]; 9.99 µM)	viability fold change ([5]; 29.9 µM)	progressively motile sperm ([6]; 9.99 µM) [%]	progressively motile sperm ([6]; 29.9 µM) [%]	hyperactivated motile sperm ([7]; 9.99 µM) [%]	hyperactivated motile sperm ([7]; 29.9 µM) [%]	change in acrosome-reacted ([8]; 9.99 µM) [%]	change in acrosome-reacted ([8]; 29.9 µM) [%]	acrosome-reacted ([9]; 9.99 µM) [%]	acrosome-reacted ([9]; 29.9 µM) [%]	progressively motile sperm [10, 11] [%]	progressively motile sperm [10, 12] [%]	progressively motile sperm [10, 13] [%]	progressively motile sperm [10, 14] [%]	progressively motile sperm [10, 15] [%]	progressively motile sperm [10, 16] [%]
COc1cc(C(=O)N2CCC(N3CCN(C)CC3)CC2)ccc1Nc1ncc2c(n1)N(C)c1ccccc1C(=O)N2C [LRRK2-IN-1]	7.52	56.2	44.2	53.9	5.8	10.2	-2.77	-1.16	-9.9	-13	-11.9	-17.6	-0.856	-0.909	7.96	4.98	224	215	1.4	1.43	58.9	103	31.1	27.8	57.2	50.6	62.8	43.3
CC(C)c1ccc2c(c1)CC[C@H]1[C@](C)(CN)CCC[C@]21C [Leelamine hydrochloride]	102	103	88.2	98.4	25.1	36.4	-0.495	-12.1	1.52	-51.7	-1.74	-63.5	-1.89	-2.79	4.41	-53.6	-31	-87.5	5.38	14.4	41.7	60.2	15.1	-12.8	51.8	-74.2	59.5	-84.3
C[C@]1(O)C[C@@H](c2nc(-c3ccc4ccc(-c5ccccc5)nc4c3)c3c(N)nccn32)C1 [Linsitinib]	-2.88	27.2	2.74	25	1.62	0.144	2.7	5.16	-8.39	-6.08	-8.05	-11.2	-1.24	-1.48	10.2	14.7	219	114	1.26	1.92	115	113	43.2	45.9	71.3	65.1	93.9	79.2
CCCCCCCCCCCCCCCCOCC(COCC(F)(F)F)OP(=O)([O-])OC (centres undefined) [MJ33]	-0.425	2.58	6.41	1	0	0.036	2.25	4.52	-13.2	0.791	-9.12	-4.03	-0.678	-0.975	10.8	15.1	21.6	9.77	0.541	1	6.57	19.6	3.5	11.9	-6.92	-2.7	-4.8	-4.44
COCC(=O)O[C@]1(CCN(C)CCCc2nc3ccccc3[nH]2)CCc2cc(F)ccc2[C@@H]1C(C)C [Mibefradil]	14	103	35.6	97.9	5.66	43.7	-1.6	0.488	-3.96	-8.13	-7.2	-14.3	-1.48	-2.28	3.94	6.24	-13.7	-48.1	0.323	1.49	18.3	38.1	1.95	0.528	16.4	25.7	27.4	23.4
CCCCN1C[C@@H](O)[C@H](O)[C@H](O)[C@@H]1CO [Miglustat]	5.75	-4.38	0.0668	-3.87	0	0	-1.47	0.804	-1.56	-0.192	-5.48	-3.6	-0.2	0.248	5.12	9.04	12.2	2.46	-0.0821	-0.0793	-0.571	-6.96	-0.816	3.26	9.63	8.04	8.15	7.52
CC(C)[C@H]1c2ccc(F)cc2CC[C@@]1(CCN(C)CCCc1nc2ccccc2[nH]1)OC(=O)C1CC1 [NNC 55-0396 dihydrochloride]	102	103	97.3	95.5	27.1	14.2	0.104	-33.4	-15	-93.6	-24.8	-93	-1.31	-2.3	4.2	-98.6	-62	-82.2	4.14	29.2	52.4	51.1	5.26	-62.2	16.3	-100	7.86	-100
Nc1ncnc2c1c(-c1cccc(OCc3ccccc3)c1)cn2[C@H]1C[C@@H](CN2CCC2)C1 [NVP-AEW541]	82.9	103	27.7	99.5	8.93	57.6	-0.708	-2.42	2.29	-8.07	-0.444	-10.1	-0.326	-0.581	1.09	5.49	16.7	-13.9	0.03	0.662	10.6	31.6	6.28	11.5	31.9	34.1	48.5	31.5
